In patent publication US12083084B2, “Method for enhancing energy production and metabolism in cells” (REPLICON HEALTH OY, priority 2013, dated 2024):
Where “and” joins values, the source holds several entries; their conditions need not be identical. Identical values can stand only once.

Tests used:
[1] = test system: human primary hepatocytes; assay: NAD+/NADH quantification in human hepatocytes; assay type: cell-based; parameters: NADtot / NADH / NAD+ / NAD+/NADH: unit not given here; settings: 48 h + 3 h
Source text: For the measurement of total NAD (NADtot=NADH+NAD^+) and NAD^+/NADH ratio, a NAD^+/NADH Quantification kit (MAK037) from Sigma was used. NAD functions as an electron carrier, fluctuating between the oxidized (NAD^+) and reduced (NADH) forms. In addition, NAD^+ plays critical roles in ADP-ribosylation reaction and as a substrate for sirtuins. According to the Sigma instruction, the NAD^+/NADH Quantification kit (Sigma) provides a convenient tool for sensitive detection of NAD, NADH and their ratio without requirement to purify them from samples. Important to notice is that the kit measures NADH and NAD^+ in whole cell including all cell organelles and compartments. Mitochondrial matrix is clearly dominant NADH producer from TCA and beta oxidation (consuming naturally the same amount of NAD^+ in redox reactions). Importantly, formed NADH is also typically oxidized into NAD^+ in the matrix by Complex I in ETC. As is well known anaerobic carbohydrate metabolism, i.e. glycolysis, in cytosol also consumes NAD^+ and produces NADH.
Cell culture in NADH-tests was like in Example 1.1. The change of the medium with DGAcs was conducted at 0 h, 24 h and 48 h. NAD measurements were made at 48+3 h in all cases. For CDP also HPA was tested, and for DOO no new nutrition at 48 h was added, i.e. test was conducted in fasting conditions.

human hepatocytes = assay: Gene expression from hepatocytes lysates; assay type: cell-based; settings: N = 5
[2] = 4.5 day acute test, wide blood panel (Example 2.3.1); assay type: in vivo, human; settings: for increased level of blood triglycerides: 4.5 day test
Experimental: In earlier in vivo experiments (Example 2.1 and 2.2) the last DGAcs was taken in previous night. In this Example the last dose was double in size (=some 10 mg/kg), and it was taken in the same morning as the collection of blood samples. Higher than “normal” therapeutic dose and short time to blood measurement was chosen in order to see a clearer dose response compared to zero control. On top of very wide blood panel, like in Examples 2.1 and 2.2, also gene expression analyses from peripheral leukocytes (Example 2.3.2 below), and concentration analyses from collected plasma samples (Example 2.3.3) was conducted. Also glucose tolerance test and related insulin measurements (Example 2.3.4 below) was conducted. By comparing results of subject 1 (S1) from Example 2.1 and in Example 2.3.1 (below), it is fairly straightforward to see that this “high dose and immediate response strategy” was efficient, and it produced even very important deviations in some parameters due to different administrations.
In this Example the 4 day experiment in Example 2.1 was extended into 4.5 day experiment by additional DGAcs dose in the morning before blood measurement. Same wide fasting blood panel consisting of 25 different metrics and full blood count was measured for all participants (sample analytics by United Medix Laboratories, Finland).
Two healthy volunteers (S1 and S9) and two (otherwise healthy) volunteers using statin medication (S10 and S11) were chosen for the experiment. The test set up was double blinded. S1 had participated in the earlier 4 day experiment (see Table 3 above and also to a 3 week pilot testing) and served as an important positive control on the efficacy of the DGAcs. Statin group on the other hand was chosen as some kind of a negative control because statins to some extend can possibly counter act the positive effects of the DGAcs and on the other hand also have similar health effects. Statins suppress mevalonate pathway by inhibiting HMG Coa reductase activity and also disturb balancing of cellular NADPH/NADP^+ levels (FIGS. 3b and 4). […] Statin treatment group was not expected to yield positive results but possibly vice versa. For S10 the statin dose was halved two weeks before the test from 20 mg to 10 mg (Simvastatin). For S11 statin treatment was kept at 20 mg per day (also Simvastatin).

[3] = donor alpha, new nutrition at 48 h, N = 5, 1.4 (μM)
[4] = donor alpha, new nutrition at 48 h, N = 5, 14 (μM)
[5] = donor one, new nutrition at 48 h, N = 5, 1.4 (μM)
[6] = donor one, new nutrition at 48 h, N = 5, 14 (μM)
[7] = donor three, no new nutrition at 48 h (fasting), N = 3, 1.4 (μM)
[8] = donor three, no new nutrition at 48 h (fasting), N = 3, 14 (μM)
[9] = 4.5 day, 5 mg/kg twice a day, last dose 10 mg/kg, 2.5 hours after last dose, healthy males S1 and S9, fasting blood, vs 0-control

For `O.O.O=C([O-])[C@H](O)CO.O=C([O-])[C@H](O)CO.[Ca+2]` [DGAcs, D-glyceric acid, calcium salt dehydrate], which “Change in NAD+/NADH vs. Control” value [1, 3] is on record?
Its value is −53%.

And the “NAD+” value [1, 3]?
Its value is 0.009.

And the “NAD+/NADH” value [1, 3]?
Its value is 0.040.

And the NADH [1, 3]?
Its NADH is 0.222.

What about the NADtot [1, 3] of the same compound?
Its NADtot is 0.231.

What about the “Change in NAD+/NADH vs. Control” value [1, 4] of the same compound?
Its value is −62%.

And the “NAD+” value [1, 4]?
Its value is 0.007.

What about the “NAD+/NADH” value [1, 4] of the same compound?
The value was 0.032.

And the NADH [1, 4]?
Its NADH is 0.225.

What about the NADtot [1, 4] of the same compound?
The NADtot was 0.232.

What about the “Change in NAD+/NADH vs. Control” value [1, 5] of the same compound?
The value was −39.3%.

What about the “NAD+” value [1, 5] of the same compound?
Its value is 0.040.

And the “NAD+/NADH” value [1, 5]?
Its value is 0.139.

What about the NADH [1, 5] of the same compound?
The NADH was 0.289.

What about the NADtot [1, 5] of the same compound?
The NADtot was 0.329.

And the “Change in NAD+/NADH vs. Control” value [1, 6]?
Its value is −87.2%.

And the “NAD+” value [1, 6]?
The value was 0.009.

What about the “NAD+/NADH” value [1, 6] of the same compound?
Its value is 0.029.

What about the NADH [1, 6] of the same compound?
The NADH was 0.294.

What about the NADtot [1, 6] of the same compound?
Its NADtot is 0.302.

What about the “Change in NAD+/NADH vs. Control” value [1, 7] of the same compound?
Its value is −64.6%.

And the “NAD+” value [1, 7]?
Its value is 0.004.

What about the “NAD+/NADH” value [1, 7] of the same compound?
Its value is 0.017.

And the NADH [1, 7]?
Its NADH is 0.239.

And the NADtot [1, 7]?
The NADtot was 0.243.

And the “Change in NAD+/NADH vs. Control” value [1, 8]?
Its value is −24.0%.

What about the “NAD+” value [1, 8] of the same compound?
The value was 0.009.

What about the “NAD+/NADH” value [1, 8] of the same compound?
Its value is 0.037.

And the NADH [1, 8]?
Its NADH is 0.232.

And the NADtot [1, 8]?
The NADtot was 0.240.

What about the “CYP2B6 gene expression deviation from control” value (human hepatocytes; donor alpha, 1.4 (μM)) of the same compound?
Its value is 38%.

What about the “PGC-1a gene expression deviation from control” value (human hepatocytes; donor alpha, 1.4 (μM)) of the same compound?
The value was 5%.

And the “CYP2B6 gene expression deviation from control” value (human hepatocytes; donor alpha, 14 (μM))?
Its value is 45%.

And the “PGC-1a gene expression deviation from control” value (human hepatocytes; donor alpha, 14 (μM))?
Its value is 20%.

What about the “CYP2B6 gene expression deviation from control” value (human hepatocytes; donor one, 1.4 (μM)) of the same compound?
The value was 8%.

And the “HO-1 gene expression deviation from control” value (“HO-1 gene expression deviation” for short) (human hepatocytes; donor one, 1.4 (μM))?
The value was 54%.

And the “PGC-1a gene expression deviation from control” value (human hepatocytes; donor one, 1.4 (μM))?
Its value is 12%.

And the “CYP2B6 gene expression deviation from control” value (human hepatocytes; donor one, 14 (μM))?
Its value is 3%.

And the “HO-1 gene expression deviation” value (human hepatocytes; donor one, 14 (μM))?
Its value is 50%.

What about the “PGC-1a gene expression deviation from control” value (human hepatocytes; donor one, 14 (μM)) of the same compound?
Its value is 42%.

What about the “CYP2B6 gene expression deviation from control” value (human hepatocytes; donor three, 1.4 (μM)) of the same compound?
Its value is 29%.

And the “HO-1 gene expression deviation” value (human hepatocytes; donor three, 1.4 (μM))?
The value was 83%.

And the “PGC-1a gene expression deviation from control” value (human hepatocytes; donor three, 1.4 (μM))?
Its value is 45%.

What about the “CYP2B6 gene expression deviation from control” value (human hepatocytes; donor three, 14 (μM)) of the same compound?
The value was 49%.

And the “HO-1 gene expression deviation” value (human hepatocytes; donor three, 14 (μM))?
Its value is 21%.

And the “PGC-1a gene expression deviation from control” value (human hepatocytes; donor three, 14 (μM))?
The value was 1%.

What about the “HDL, 4.5 day change” value [2, 9] of the same compound?
The value was 1% and −1%.

What about the “S-Afos, 4.5 day change” value [2, 9] of the same compound?
Its value is 8% and 12%.

And the “S-Alb, 4.5 day change” value [2, 9]?
The value was 5% and 10%.

And the “S-Amyl, 4.5 day change” value [2, 9]?
Its value is −5% and −3%.

And the “S-Cal, 4.5 day change” value [2, 9]?
The value was 4% and 3%.

What about the “S-LDH, 4.5 day change” value [2, 9] of the same compound?
The value was −4% and −7%.

And the “S-Mg, 4.5 day change” value [2, 9]?
Its value is 5% and 0%.

And the “S-Na, 4.5 day change” value [2, 9]?
Its value is 1%.

What about the “S-Uraat, 4.5 day change” value [2, 9] of the same compound?
The value was 4% and −1%.

What about the “fS-Gluk, 4.5 day change” value [2, 9] of the same compound?
The value was −2% and 4%.

What about the “fS-Krea, 4.5 day change” value [2, 9] of the same compound?
The value was 3% and 9%.

And the “fS-Transf, 4.5 day change” value [2, 9]?
The value was 5% and 8%.

What about the “fS-Trigly, 4.5 day change” value [2, 9] of the same compound?
The value was −3% and −5%.

And the “blood LDH declined” value ([2]; S1, 4.5 day test)?
The value was 4%.

And the blood urea decline ([2]; S1, 4.5 day test)?
Its blood urea decline is 7%.

And the “creatine kinase (S-CK) declined” value ([2]; S1, 4.5 day test)?
The value was 14%.

What about the “AST/ALT (ratio) after treatment” value ([2]; S1, 4.5 day test (zero control 1.32)) of the same compound?
The value was 0.96.

What about the “increased level of blood triglycerides” value ([2]; S10, statin group (Simvastatin 10 mg)) of the same compound?
Its value is “+83.5%”.

What about the “increased level of blood triglycerides” value ([2]; S11, statin group (Simvastatin 20 mg)) of the same compound?
The value was “+25.6%”.
